Read-outs that look alike come from different tables or passages of the source.
What was measured:
[1] = test system: MOLM14; assay: Proliferation assay A (spheroid assay) MOLM14; format: cell-based, human; conditions: Homo sapiens, MOLM-14, 192 h, MOLM14 cells, 8 d, AUC of confluence against time, absolute IC50; read-out: (3a) Spheroid assay MOLM14 (IC50(μM)) Assay A
Method: 3a) Proliferation Assay A
The anti-proliferative effect of menin/MLL protein/protein interaction inhibitor test compounds was assessed in human leukemia cell lines. The cell lines MV-4-11 and MOLM14 harbor MILL translocations and express the MILL fusion proteins MLL-AF4 and MLL-AF9, respectively, as well as the wildtype protein from the second allele. […] K562 was used as a control cell line containing two MLL wildtype alleles in order to exclude compounds that display general cytotoxic effects.
MV-4-11 and MOLM14 were cultured in RPMI-1640 (Sigma Aldrich) supplemented with 10% fetal bovine serum (HyClone), 2 mM L-glutamine (Sigma Aldrich) and 50 μg/ml gentamycin (Gibco). K562 were propagated in RPMI-1640 (Sigma Aldrich) supplemented with 20% fetal bovine serum (HyClone), 2 mM L-glutamine (Sigma Aldrich) and 50 μg/ml gentamycin (Gibco).
In order to assess the anti-proliferative effects, 1,500 MV-4-11, 300 MOLM14 or 750 K562 cells were seeded in 200 μl media per well in 96-well round bottom, ultra-low attachment plates (Costar, catalogue number 7007). Cell seeding numbers were chosen based on growth curves to ensure linear growth throughout the experiment. Test compounds were added at different concentrations and the DMSO content was normalized to 0.3%. Cells were incubated for 8 d at 37° C. and 5% CO2. Spheroid like growth was monitored in real-time by live-cell imaging (IncuCyteZOOM, Essenbio, 4× objective) acquiring one image every four hours for 8 d. Confluence (%) as a measure of spheroid size was determined using an integrated analysis tool.
In order to determine the cumulative effect of the test compounds over time, the area under the curve (AUC) in a plot of confluence against time was calculated. Confluence at the beginning of the experiment (t=0) was used as baseline for the AUC calculation.
Absolute IC50 values were calculated according to the following procedure: % Control=(AUC sample/AUC control)*100
AUC control mean AUC of control values (cells without compound/DMSO as vehicle control)
A non-linear curve fit was applied using the least squares (ordinary) fit method to the plot of % control versus compound concentration. Based on this, the absolute IC50 value (half maximal inhibitory concentration of the test compound causing an anti-proliferative effect of 50% relative to the vehicle control) was calculated.

[2] = test system: MV-4-11; assay: Proliferation assay A (spheroid assay) MV-4-11; format: cell-based, human; conditions: MV-4-11 cells, 8 d, AUC of confluence against time, absolute IC50, read-out: (3a) Spheroid assay MV-4-11 (IC50(μM)) Assay A
How it was run: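 Spheroid growth in ultra-low-attachment round-bottom wells (1,500 MV-4-11, 300 MOLM14 or 750 K562 cells), compound titration at 0.3% DMSO, 8 d at 37° C. Confluence imaged every 4 h; AUC from t=0 baseline expressed as % of DMSO control and fitted for absolute IC50.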

[3] = target: T1, menin (Homo sapiens, UniProt O00255, T541A); assay: Menin/MLL homogenous time-resolved fluorescence (HTRF) assay; format: binding; conditions: location 2; read-out: (2) location 2 Menin HTRF assay (IC50 (nM))
T1 construct: Menin (a.a. 1-610-6×his tag)
T1 sequence (O00255 with tags, fused parts or gaps T541A): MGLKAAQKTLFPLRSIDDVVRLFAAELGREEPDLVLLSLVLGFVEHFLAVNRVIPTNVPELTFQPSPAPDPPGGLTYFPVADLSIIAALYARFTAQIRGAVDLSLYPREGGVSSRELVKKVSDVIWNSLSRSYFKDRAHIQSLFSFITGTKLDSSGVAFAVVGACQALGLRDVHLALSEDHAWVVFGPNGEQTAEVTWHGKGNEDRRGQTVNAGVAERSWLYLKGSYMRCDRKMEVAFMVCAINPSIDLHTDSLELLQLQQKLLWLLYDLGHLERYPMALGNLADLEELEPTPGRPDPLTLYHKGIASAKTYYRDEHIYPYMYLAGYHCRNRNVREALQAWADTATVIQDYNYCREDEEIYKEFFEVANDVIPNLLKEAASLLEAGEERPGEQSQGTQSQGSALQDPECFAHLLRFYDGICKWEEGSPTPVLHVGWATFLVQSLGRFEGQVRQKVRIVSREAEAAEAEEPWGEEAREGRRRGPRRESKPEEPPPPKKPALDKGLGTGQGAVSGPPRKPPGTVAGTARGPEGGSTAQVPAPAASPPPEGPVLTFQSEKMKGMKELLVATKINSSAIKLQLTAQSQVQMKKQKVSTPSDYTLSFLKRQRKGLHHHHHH
How it was run: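 Displacement of 75 nM FITC-MBM1 from terbium-cryptate-labeled His-tagged menin 1-610 ([…]) was read as the 520/490 nm HTRF ratio. Compound (11-point, 3-fold series) got 5 min with menin before peptide, then 15 min at ambient; 0.5% DMSO, Tris pH 7.5.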

| IC50 [1] [µM] | IC50 ([2]; Homo sapiens, MV4-11, 192 h) [µM] | IC50 [3] [nM] | IC50 [2] [µM] | SMILES |
| --- | --- | --- | --- | --- |
| 3.98 | 2.13 | 70.5 |  | FC(F)(F)Cc1cc2c(N3CCC4(CC(Nc5ccc6cc[nH]c6c5)C4)C3)ncnc2s1 (mixture of isomers) [Compound 311] |
|  |  | 2.9 | 0.03 | O=c1[nH]c2cc(CNC3CCC4(C3)CN(c3ncnc5sc(CC(F)(F)F)cc35)C4)ccc2o1 (single isomer, unassigned) [Compound 58] |
| 0.82 | 0.16 | 1.8 |  | Cn1c(=O)[nH]c2cc(CNC3CCC4(C3)CN(c3ncnc5sc(CC(F)(F)F)cc35)C4)ccc21 (centres unmarked) [Compound 54] |
| 0.7 | 0.09 | 5.8 |  | CNC(=O)c1ccc(NC2CC3(CCN(c4ncnc5sc(CC(F)(F)F)cc45)C3)C2)cc1 (centres unmarked) [Compound 93] |
